Patent EP0548798A1, “Antiviral agent” (SANWA KAGAKU KENKYUSHO CO., LTD., priority 1991, dated 1993)
Read-outs that look alike come from different tables or passages of the source.

Assays:
[1] = tested on: herpes simplex virus type 1 (Miyama strain); experiment: Antiviral activity against HSV-1 in vitro, inhibition of virus-induced CPE in GMK cells (Test Example 2); format: cell-based, HSV-1 (Miyama strain); conditions: 0.5% fetal bovine serum
Protocol: (§1) Confluent GMK cells (derived from green monkey kidney) in 96-well plates were infected with HSV-1 (Miyama strain) in the presence of various concentrations of test compounds. After incubation, virus-induced cytopathic effect (CPE), inhibitory effect of CPE by the test compound and cytotoxicity were microscopically observed. The virus titer (TCID₅₀) was determined from CPE of virus infected culture. Ancivirus effects of test compounds were calculated from TCID₅₀ values of test compound treated and control cultures and represented by ΔTCID₅₀(log₁₀). Test compounds were dissolved in MEM medium, ethanol or DMSO to 10 mg/ml, and diluted with MEM medium supplemented with 0.5% fetal bovine serum.

GMK cells [2] = experiment: Cytotoxicity observed microscopically in GMK cells (Test Example 2); format: cell-based, green monkey; set-up: key: -: no cytotoxicity; ±: slight cytotoxicity; +: cytotoxicity with observable antiviral effect; conditions: in parentheses
Protocol: as §1
In Table 4, parentheses indicate the cytotoxicity of these compounds. (-), (±) and (+) indicate no cytotoxicity, slight cytotoxicity and cytotoxicity with observable antiviral effect, respectively.

[3] = tested on: herpes simplex virus type 1 (Miyama strain); experiment: Antiviral activity against HSV-1 in vitro, inhibition of virus-induced CPE in GMK cells (Test Example 1); format: cell-based, HSV-1 (Miyama strain)
Protocol: as §1, with “After incubation, virus-induced cytopathic effect (CPE), inhibitory effect of CPE by the test compound and cytotoxicity were microscopically observed.” left out, “Antivirus” for “Ancivirus”, “1%” for “0.5%”, “bovineserum.” for “bovine serum.”

GMK cells [4] = experiment: Cytotoxicity observed microscopically in GMK cells (Test Example 1); format: cell-based, green monkey
Protocol: as §1, with “After incubation, virus-induced cytopathic effect (CPE), inhibitory effect of CPE by the test compound and cytotoxicity were microscopically observed.” left out, “Antivirus” for “Ancivirus”, “1%” for “0.5%”, “bovineserum.” for “bovine serum.”
In Table 1, parentheses indicate the cytotoxicity of these compounds. (-) and (±) indicate no cytotoxicity and slight cytotoxicity, respectively.

HSV-1 (Miyama strain) = experiment: Anti HSV-1 activity in vivo, intraperitoneally infected mice; set-up: species or system Male BALB/c mice; conditions: 322 PFU (10LD₅₀) HSV-1
Protocol: Male BALB/c mice (5 weeks of age) were intraperitoneally infected with 322 PFU (plaque forming unit, 10LD₅₀) of HSV-1 (Miyama strain). Twenty one days later, survival ratio and mean survival days were evaluated. Test compounds were dispersed in 5% arabic gum/physiological saline, and intraperitoneally administered at 10 mg and 20 mg/kg. Treatment began just after virus inoculation and continued for 5 days.

[5] = Human alphaherpesvirus 1, 10 µg/ml, GMK cells, 1% fetal bovine serum, read-out: Antiviral Activity (ΔTCID₅₀(log₁₀))
[6] = 10 µg/ml, GMK cells, in parentheses
[7] = 10 µg/ml, GMK cells, 1% fetal bovine serum
[8] = 10 mg/kg intraperitoneally for 5 days
[9] = 20 mg/kg intraperitoneally for 5 days

| Compound | Antiviral Activity (ΔTCID₅₀(log₁₀)) ([1]; 10 µg/ml) [log₁₀] | cytotoxicity (GMK cells [2]; 10 µg/ml) | log reduction at 10 µg/mL [3, 5] | cytotoxicity (GMK cells [4]; [6]) | other results |
| --- | --- | --- | --- | --- | --- |
| O=c1[nH]c(N2CCN(c3ccccc3C(F)(F)F)CC2)nc2nc[nH]c12 [Compound of Example 20, 2-[4-(2-Trifluoromethylphenyl)-1-piperazinyl]hypoxanthine] | > 2.83 | ± |  |  | Antiviral Activity (ΔTCID₅₀(log₁₀)) ([1]; 5 µg/ml): 1.66 log₁₀; cytotoxicity (GMK cells [2]; 5 µg/ml): - |
| CC(=O)N1CCN(c2ccccc2Cl)CC1 [Compound of Example 13, 1-Acetyl-4-(2-chlorophenyl)piperazine] |  |  | 0 | - |  |
| CC[C@@]12C=C(C(=O)NCCN3CCN(c4ccccc4Cl)CC3)n3c4c(c5ccccc53)CCN(CCC1)[C@H]42 [Compound of Example 26, N-[4-(2-Chlorophenyl)piperazine-1-yl]ethyl-(3α,16α)-eburunamenine-14-caboxamide] | > 3.17 | + |  |  | Antiviral Activity (ΔTCID₅₀(log₁₀)) ([1]; 5 µg/ml): 2.00 log₁₀; cytotoxicity (GMK cells [2]; 5 µg/ml): - |
| CCCCCCCCCCCCCCCCCC(=O)N1CCN(c2ccccc2Cl)CC1 [Compound of Example 7, 1-(2-Chlorophenyl)-4-octadecanoylpiperazine] |  |  | 0.17 | - |  |
| CC[C@@]12C=C(C(=O)NCCN3CCN(c4ccccc4OC)CC3)n3c4c(c5ccccc53)CCN(CCC1)[C@H]42 [Compound of Example 25, N-[4-(2-Methoxyphenyl)piperazine-1-yl]ethyl-(3α,16α)-eburunamenine-14-caboxamide] | 2.27 | - |  |  | Antiviral Activity (ΔTCID₅₀(log₁₀)) ([1]; 5 µg/ml): 0.67 log₁₀; cytotoxicity (GMK cells [2]; 5 µg/ml): - |
| CC1(C)[C@@H](O)CC[C@]2(C)[C@H]3CC=C4[C@@H]5C[C@@](C)(C(=O)N6CCN(c7ccccc7Cl)CC6)CC[C@]5(C)CC[C@@]4(C)[C@]3(C)CC[C@@H]12 [Compound of Example 15, 1-(3β-Hydroxy-18β-olean-12-en-30-oyl)-4-(2-chlorophenyl)piperazine] |  |  |  |  | Antiviral Activity (ΔTCID₅₀(log₁₀)) [3, 7]: > 2.00 log₁₀ |
| CCN1CCN(c2ccccc2Cl)CC1 [Compound of Example 12, 1-(2-Chlorophenyl)-4-ethylpiperazine] |  |  |  | - | log reduction at 10 µg/mL ([3]; Human alphaherpesvirus 1, GMK, read-out: Antiviral Activity (ΔTCID₅₀(log₁₀))): 0.33 |
| C[C@H](CCC(=O)N1CCN(c2ccccc2Cl)CC1)[C@H]1CC[C@H]2[C@@H]3CC[C@@H]4CCCC[C@]4(C)[C@H]3CC[C@]12C [Compound of Example 10, 1-(2-Chlorophenyl)-4-(5β-cholan-24-oyl)piperazine] |  |  | 0.17 |  | cytotoxicity (GMK cells [4]; green monkey, 10 µg/ml): - |
| CCn1cc(C(=O)O)c(=O)c2cc(F)c(N3CCN(c4ccccc4Cl)CC3)cc21 [Compound of Example 5, 7-[4-(2-Chlorophenyl)-1-piperazinyl]-1-ethyl-6-fluoro-1,4-dihydro-4-oxoquinoline-3-carboxylic acid] |  |  | > 2.83 | ± | Mean Survival Days (HSV-1 (Miyama strain); [8]): 16.8 ± 1.6 days; Survival Ratio at 21 days (%) (HSV-1 (Miyama strain); [8]): 40%; Mean Survival Days (HSV-1 (Miyama strain); [9]): 18.7 ± 1.2 days; Survival Ratio at 21 days (%) (HSV-1 (Miyama strain); [9]): 70%; log reduction at 5 µg/mL ([3]; Human alphaherpesvirus 1, 5 µg/ml, GMK cells, 1% fetal bovine serum, read-out: Antiviral Activity (ΔTCID₅₀(log₁₀))): > 2.83; cytotoxicity (GMK cells [4]; 5 µg/ml, GMK cells, in parentheses): - |
| CC(=O)Oc1ccccc1C(=O)N1CCN(c2ccccc2Cl)CC1 [Compound of Example 2, 1-(2-Acetoxybenzoyl)-4-(2-chlorophenyl)piperazine] |  |  | 0.5 | - |  |
| O=C(CC12CCCN1CCC2)N1CCN(c2ccccc2Cl)CC1 [Compound of Example 4, 1-(1-Azabicyclo[3.3.0]octan-5-yl)acetyl-4-(2-chlorophenyl)piperazine] |  |  |  |  | Antiviral Activity (ΔTCID₅₀(log₁₀)) [3, 7]: 0.66 log₁₀ |
| NS(=O)(=O)c1ccc(N2CCN(c3ccccc3Cl)CC2)cc1 [Compound of Example 11, 1-(4-Aminosulfonylphenyl)-4-(2-chlorophenyl)piperazine] |  |  | 1.5 | - |  |
| COc1ccc2[nH]c(C(=O)N3CCN(c4ccccc4C(F)(F)F)CC3)cc2c1 [Compound of Example 22, 1-(5-Methoxyindolyl-2-carbonyl)-4-(2-trifluoromethyl)piperazine] | 0.64 | - |  |  |  |
| O=C(c1ccccc1O)N1CCN(c2ccccc2Cl)CC1 [Compound of Example 3, 1-(2-Chlorophenyl)-4-(2-hydroxybenzoyl)piperazine] |  |  | 0.83 | - |  |
| 2-[4-(2-Trifluoromethylphenyl)-1-piperazinyl]-7-(2-deoxy-α-and β-D-ribofuranosyl)hypoxanthine and 2-[4-(2-Trifluromethylphenyl)-1-piperazinyl]-9-(2-deoxy-α- and β-D-ribofuranosyl)hypoxanthine [Compound of Example 21] | 1.00 | - |  |  |  |
| CCn1cc(C(=O)O)c(=O)c2cc(F)c(N3CCN(c4ccccc4C(F)(F)F)CC3)cc21 [Compound of Example 23, 1-Ethyl-6-fluoro-7-[4-(2-trifluoromethylphenyl)-1-piperazinyl]-1,4-dihydro-4-oxoquinoline-3-carboxylic acid] | > 3.17 | + |  |  | Antiviral Activity (ΔTCID₅₀(log₁₀)) ([1]; 5 µg/ml): > 3.17 log₁₀; cytotoxicity (GMK cells [2]; 5 µg/ml): ± |
| CS(=O)(=O)N1CCN(c2ccccc2Cl)CC1 [Compound of Example 6, 1-(2-Chlorophenyl)-4-methylsulfonylpiperazine] |  |  | 0.17 | - |  |
| CCCCC/C=C\C/C=C\CCCCCCCC(=O)N1CCN(c2ccccc2C(F)(F)F)CC1 [Compound of Example 17, 1-(2-Trifluoromethylphenyl)-4-[(Z,Z)-9,12-octadecadienoyl]piperazine] | 1.56 | - |  |  |  |
| Cc1cc(O)c2c(=O)c(C)c(-c3ccc(OC(=O)CN4CCN(c5ccccc5C(F)(F)F)CC4)cc3)oc2c1 [Compound of Example 24, 2-[4-(4-(2-Trifluoromethylphenyl)-1-piperazinylacetoxy)phenyl]-5-hydroxy-3,7-dimethyl-4H-1-benzopyran-4-one] | 0.33 | - |  |  |  |
| O=C(CN1CCCC1=O)N1CCN(c2ccccc2Cl)CC1 [Compound of Example 1, 1-(2-Chlorophenyl)-4-(2-pyrrolidon-1-yl)acetylpiperazine] |  |  | 0.17 | - |  |
| CC1(C)[C@@H](O)CC[C@]2(C)[C@H]3CC=C4[C@@H]5C[C@@](C)(C(=O)N6CCN(c7ccccc7C(F)(F)F)CC6)CC[C@]5(C)CC[C@@]4(C)[C@]3(C)CC[C@@H]12 [Compound of Example 18, 4-(2-Trifluoromethylphenyl)-1-(3β-hydroxy-18β-olean-12-en-30-oyl)piperazine] | 1.67 | - |  |  |  |
